The values that follow come from patent US20200308540A1, “METHODS OF MAKING, EXPANDING, AND USING A HUMAN PROGENITOR T CELL” (REGENTS OF THE UNIVERSITY OF MINNESOTA, priority 2017, published 2020).

Experiment [1] has as its system CD34^+ hematopoietic stem/progenitor cells (HSPCs). The experiment in a line: SR1 expansion culture of umbilical cord blood CD34+ HSPC (15 days). It counts as cell-based, human. How it is done: Frozen UCB units were thawed using standard methods (Rubinstein et al., Proc Natl Acad Sci USA. 1995; 92:10119-10122). The UCB unit was enriched for CD34^+-cells using the CliniMACS Cell Selection Device (Miltenyi Biotec, Gladbach, Germany) following manufacturer's instructions, and the resulting CD34-enriched cell population was placed in expansion media at a concentration of 5×10^3 cells per milliliter (cells/mL). The expansion culture media included SCF, FLT-3L, TPO, IL-6 (each at 50 ng/ml) and SR1 (750 nM). Cells were cultured in expansion culture media without the addition of antibiotics for 15 days; cytokines were replenished and cells were resuspended at 5×10^3 cells/mL at day 7.
HSC expansion media cultures (Boitano et al. Science. 2010; 329(5997):1345-1348) lasted 15 days prior to freezing.
It was previously reported that naïve-UCB can generate 4- to 5-fold Tprog expansion (Awong et al. Blood. 2009; 114(5):972-982). At least 2×10^5 CD34^+ HSPC are needed for HSCT; but a single UCB unit averages 2.5×10^3 CD34^+ HSPC (Delaney et al. Expert Rev Hematol. 2010; 3(3):273-283). This Example describes an investigation of whether adding SR1 (0.75 μM) to expand CD34^+ HSPC Wagner et al. Cell Stem Cell. 2016; 18(1):144-155) could improve in vitro pro-T generation. CD34^+ HSPC culture reproducibility (FIG. 11A) was characterized. […] 2012; 10(2):120-136).

The test system of experiment [2] is progenitor T cells (CD7^+ cells). The experiment in a line: OP9-DL1 co-culture of SR1-/UM171-expanded cells to generate progenitor T cells. It counts as cell-based, human. The conditions noted are these: for CD34 expression during culture with OP9-DL1 cells: cells expanded with compound, then OP9-DL1 culture. How it is done: 1. SR1-expanded cells were suspended in 3 mL of OP9 media then seeded into a plate/flask containing irradiated OP9-DL1 cells at 80% confluency. The human cytokines FLT-3L, IL-7, and SCF were added from a 1,000×stock solution (to 1×final concentration). 2. Additional human cytokines FLT-3L, IL-7, and SCF were added from a 1,000×stock solution (to 1×final concentration) every other day during cell culture. 3. At day 5 and every 3 days to 4 days thereafter, media containing cells was removed, and cells and media were passed through a 70 μm sterile nylon mesh or a 40 μm cell strainer into a 50 mL conical tube. Passage through the mesh or strainer removes OP9-DL1 cells but not cells derived from UCBs. PBS (5 mL) was added, and the coculture was disaggregated by vigorous pipetting (using a 5 mL pipette) and passed through the same cell strainer. […] 4. The cells that passed through the cell strainer were centrifuged at 515-585×g for 5 minutes, the supernatant was removed, and the cells were suspended in 1 mL of OP9 media. At this stage, the cells were counted using a hemocytometer (FIG. 2), assayed by flow cytometry (FIG. 3), or co-culture was continued. For continued co-culture, the cells were transferred into a new 6-well plate already containing OP9-DL1 cells at 80% confluency in 2 mL of OP9 media, and human cytokines FLT-3L, IL-7, and SCF were added from a 1,000×stock solution (to 1×final concentration). 5. Cells were harvested as described in steps 3 and 4 at day 14 or day 21 and phenotype was assessed (see FIG. 2, FIG. 3, and FIG. 7) or the cells were injected into a mouse, as described in Example 5. OP9-DL1 were gamma-irradiated (100 Gy) and seeded onto tissue culture flasks. SR1-UCB and naïve-UCB were seeded 2:1 with OP9-DL1 to generate proT-cells after 13-14 days (Schmitt et al. Immunity. 2002; 17(6):749-756). To examine whether SR1-expanded HSPC could generate proT-cells in vitro, SR1-HSPC were co-cultured with OP9-DL1 (FIG. 11A). […] SR1-HSPC and naïve-HSPC co-cultures had similar % CD34^−CD7^+ cells, % CD7^+CD5^+ cells and % CD7^+CD1a^+ cells (FIG. 11C). […] From SR1-HSPC, an approximately 4-fold expansion of pro-Tcells was observed, similar to naïve-HSPC co-cultures (FIG. 11D). Combining SR1-expansion of HSPCs and use of OP9-DL1 co-cultures, a single starting HSPC yielded approximately 2×10^3 cells, a 200-fold greater expansion of SR1-proT cells over naïve proT-cells (FIG. 11E).

The test system of another experiment is NSG mice. The experiment can be described thus: Engraftment of progenitor T cells in NSG mice (thymus, spleen). The conditions noted are these: mouse, in vivo. As to the method: ProT cells generated as described in Example 4 (after 21 days of co-culture) were injected into the liver of 2 day to 5 day old neonatal (NOD/SCID/γcnull (NSG)) mice (3 mice per group) at different cell concentrations/mouse (e.g., 2×10^5 cells, 5×10^5 cells, or 5×10^6 cells in 30 μL, volume). Optionally, 2×10^4 CD34-enriched HSCs, isolated from a UCB unit using the CliniMACS Cell Selection Device (Miltenyi Biotec, Gladbach, Germany) following manufacturer's instruction, were injected simultaneously.
Twelve weeks later, mice were sacrificed, and engraftment of the in vitro-derived ProT cells into immunodeficient mice was assessed by flow cytometry analysis using phenotypic characterization of cells within the thymus and spleen of the recipient mouse. Useful markers for analysis include CD45, CD3/TCR, CD8, CD4, CD5, CD7, and CD1a (antibodies were acquired from eBioscience, San Diego, Calif.).
As shown schematically in FIG. 8, SR1-expanded CD34^+ cells from a UCB unit were put into culture with OP9-DL1 cells for 14 days as described in Example 4. […] Four weeks later the mice were sacrificed and the cells' ability to engraft the thymus was assessed.
Tprogenitors were generated from naïve UCB by co-culture with OP9-DL1 cells for 14 days as described in Example 4. […] Four weeks later the mice were sacrificed and the cells' ability to engraft the thymus was assessed. […]

The test system of a further experiment is patients. The conditions noted are these: SR1-expanded cord blood; cited from earlier work.
The subject of another experiment is CD34+ stem cells. The conditions noted are these: median; Wagner et al. 2016; cited from earlier work.

For `CC(C)n1cnc2c(NCCc3ccc(O)cc3)nc(-c3csc4ccccc34)nc21` [SR1, StemRegenin-1], in experiment [1] (SR1 0.75 μM, by day 15), the “fold enhancement of total nuclear cells” value was 252-746 fold, the “fold expansion of CD34^+CD90^+ cells” value is given as 170-415 fold and the “fold expansion of long-term reconstituting CD34^+CD38^− cells” value is on record as 157-558 fold. Further, in experiment [1] (SR1-expanded umbilical cord blood), the “fold expansion of CD34^+ hematopoietic stem/progenitor cells (HSPCs)” value was “greater than 250 fold”. Moreover, in experiment [2] (SR1-expansion of HSPCs combined with OP9-DL1 co-culture), the “cells yielded from a single starting HSPC” value is given as “approximately 2×10^3 cells”. Further, the “fold increase in ProT cells” value in experiment [2] (SR1 expansion of human UCB, then co-culture with Notch ligand cell without SR1) is 2000 fold. The “CD34 expression during culture with OP9-DL1 cells” value in experiment [2] was “lose CD34 expression”. In experiment [2] (flow cytometry after OP9-DL1 culture), the “percentage of culture that is proT cell (CD7^+ cell)” value is on record as “greater than 90%”. The “fold expansion of pro-T cells in OP9-DL1 co-culture” value in experiment [2] (from SR1-HSPC, day 14) is “approximately 4 fold”. Also, in experiment [2] (normalized to initial CD34+ input cell number), the “fold greater expansion of SR1-proT cells over naïve proT-cells” value worked out at 200 fold. For the same compound, the “thymus engraftment of cells treated with the compound, after OP9-DL1 co-culture” value in the experiment on NSG mice is on record as “able to engraft the thymus”. In the experiment on patients, the “median time to neutrophil engraftment” value was 15 days and the “median time to platelet engraftment” value is on record as 49 days. Further, in the experiment with CD34+ stem cells, the “fold expansion of CD34+ stem cells” value was 330 fold.
For `Cn1nnc(-c2ccc3c(c2)[nH]c2nc(Cc4ccccc4)nc(NC4CCC(N)CC4)c23)n1` (stereo not shown) [UM171], in experiment [2], the “CD34 expression during culture with OP9-DL1 cells” value is reported as “lose CD34 expression”. Also, the “thymus engraftment of cells treated with the compound, after OP9-DL1 co-culture” value in the experiment with NSG mice is “able to engraft the thymus”.
